According to patent US20130136721A1, “Compositions and Methods of Generating a Differentiated Mesodermal Cell” (THE JOHNS HOPKINS UNIVERSITY, priority 2010, published 2013):
Entries after “also recorded” stand apart in the source; their conditions may differ.

How the values were obtained:
Assay type in all cases: cell-based, human
H9 hESC = assay: Beating hEB assay (contracting hEB after forced aggregation cardiac differentiation); conditions: for effect on cardiac differentiation, phase 2 medium: supplement in d0-d2 medium; for effect on cardiac differentiation, phase 2 medium / effect on cardiac differentiation, phase 3 medium: contracting hEB d9; for effect on cardiac differentiation, phase 3 medium: supplement in d2-d4 medium; for effect on cardiac differentiation, phase 4 medium: supplement in d4 onwards medium
Excerpt: The cardiac differentiation protocol was divided into four distinct phases for optimization (FIG. 3A): phase 1: uniform undifferentiated growth; phase 2: hEB formation/mesoderm induction; phase 3: hEB cardiac specification; phase 4: contracting cardiomyocyte development. […] After an initial round of optimizations had been completed, optimizations was repeated a second time to account for the new media formulations and then a third time to optimize the final media formulation. In some cases fourth and fifth repeats were performed to improve the statistical power of the results. For each variable tested, the bell-curve distribution of dose-response was determined. Results shown are averages of the 2nd-5th replicates (FIG. 2B).
For forced aggregation hEB differentiations, confluent hESC or hiPSC which had been grown on a commercially available extracellular matrix, Geltrex (Invitrogen) as monolayers for 3 to 13 passages were passaged with TrypLE Select and seeded at 2.5×10^6 per T25 flask. After 24 hours growth, cells were washed with PBS and treated with room temperature TrypLE Select for 1 minute at 37° C. Cells were seeded at 5000 cells per well in 96-well V-bottom uncoated plates (249952, NUNC) in 100 μL per well RPMI+PVA medium consisting of RPMI Media 1640 (with L-Glutamine), 4 mg mL-1 polyvinyl alcohol (P8136, Sigma, dissolved in RPMI at 4° C. for at least 72 hours, mixing by inversion every day), 1% chemically defined lipid concentrate, 10 μg mL-1 recombinant human insulin (Sigma), 400 μM 1-thioglycerol (Sigma), 25 ng mL-1 BMP4 and 5 ng mL-1 FGF2 (both from R&D systems), 1 μM Y-27632 (Calbiochem). This medium is not stable and was made fresh for each experiment. After 48 hours (on day 2) medium was aspirated with a Costar 8-channel aspirator (Corning) and replaced with RPMI+FBS medium consisting RPMI Media 1640, 20% characterized FBS (Hyclone), 400 μM 1-thioglycerol. On day 4 media was changed to RPMI+PVA without growth factors and hEB were transferred to 96-well U-bottom tissue culture treated plates (650180, Greiner Bio-One). Media was changed on d7 and every 3 days afterwards. hEB were visually assessed for contraction on d9 using a Nikon Eclipse Ti inverted tissue culture microscope with a TOKAI-HIT heated stage (Nikon). Images were captured using NIS-Elements (Nikon). […] For traditional cardiac differentiations using FBS, undirected differentiation was performed as previously described (Kehat et al. J Clin Invest 108, 407-414 (2001)): briefly, confluent H9 hESC grown as colonies on MEF were treated with collagenase IV for 5 minutes at 37° C. then washed from the plate using a 5 mL pipette. Cell clusters were then transferred to Petri dishes in 20% FBS medium for 7 days. hEB were then transferred to gelatin coated tissue culture plates. Media was changed every 3 days.
One single replicate consists of one 96-well plate. Repeat replicates were performed 1-4 months apart using a different vial of cells. Each experiment was repeated at least 3 times representing at least 288 hEB. Total number of hEB assessed in this work exceeds 80,000. Wells in which no hEB was detected due to pipeting error were excluded and accounted for approximately 1-5% of wells. P-values were established using unpaired two-tailed Student's t-test.

[1] = system: hESC-derived cardiomyocyte monolayer; assay: Voltage macromapping of cardiomyocyte monolayer (action potential duration); conditions: for effect on action potential: 20 μM isoproterenol or 100 μM pinacidil added to cardiomyocyte monolayers or hEB; for action potential duration: 0.67 Hz pacing, mean±s.d., 20 μM isoproterenol or 100 μM pinacidil, control 363±137 ms
Method: (§1) Cardiac markers and structural protein expression was assessed using immunofluorescence staining. […] To assess quality of hPSC-derived cardiomyocytes that were generated using this method and suitability for future applications such as cardiotoxicity testing, the electrophysiological properties were assessed via optical mapping. hEB were either mechanically dissected and plated onto fibronectin-coated glass coverslips for micromapping, or approximately 200 hEB were dissociated into single cells and plated in a 10 mm diameter area as a confluent monolayer for macromapping. hEB and monolayers were then stained with either voltage- or calcium-sensitive dye and optically mapped to visualize spontaneous activity and response to electrical field stimulation (FIG. 12A). […] To assess cardioactive drug responsiveness, 20 μM isoproterenol or 100 μM pinacidil was added to cardiomyocyte monolayers or hEB to test for beta-adrenergic stimulation response and the presence of functional KATP channels, respectively. […] Contracting hEB derived from the hiPSC line 6.2 were tested in the same manner and yielded similar results.
For optical micromapping (Weinberg et al., Methods Mol Biol 660, 215-237 (2010), contracting hEB were mechanically dissected, plated on fibronectin-coated glass coverslips and given at least 5 days to attach. hEB were then stained with either 10 μM Rhod-2-AM calcium dye for 20 minutes or 10 μM di-4-ANEPPS voltage dye for 5 minutes. After several rinses with Tyrode's solution (135 mM NaCl, 5.4 mM KCl, 1.8 mM CaCl2, 1 mM MgCl2, 0.33 mM NaH2PO4, 5 mM HEPES, and 5 mM glucose), hEB were incubated with 30 μM blebbistatin for 15 minutes to inhibit excitation-contraction coupling and subsequently prevent signal distortion due to motion artifact. The absence of hEB contraction was confirmed visually. hEB were then excited at 530 nm to visualize spontaneous activity and response to electrical field stimulation. Imaging of transmembrane potential (Vm) or intracellular calcium (Cai) was performed using an Andor iXon+860 electron multiplying charged coupled device (EMCCD) camera (128×128 pixels) at 490 Hz sampling rate. […] Macromapping of hESC-CM monolayers was performed using contact fluorescent imaging, in which maps of Vm were recorded by placing the monolayer directly on top of a bundle of 253 optical fibers 1 mm in diameter, arranged in a tightly packed, 17-mmdiameter hexagonal array. […] To analyze data, the individual recorded signals recorded were spatially filtered using a 5×5 box filter, temporally filtered using a 10 point median filter, baseline-corrected by subtraction of a fitted 3rd order polynomial, and range-normalized. […] Uniformity of APD was assessed by the coefficient of variation. […]

H9 hEB = assay: Voltage optical micromapping of contracting hEB (action potential duration); conditions: 20 μM isoproterenol, 4 hEB, mean±s.d., p≈0.01 paired t-test
Method: as §1, with “results. […]” for “results.”

| Molecule | effect on cardiac differentiation, phase 2 medium (H9 hESC) | effect on cardiac differentiation, phase 3 medium (H9 hESC) | other results |
| --- | --- | --- | --- |
| OCC(O)CS (stereo not drawn) [1-thioglycerol] | resulted in high efficiency cardiac differentiation | most suitable antioxidant for this phase | effect on cardiac differentiation, phase 4 medium (H9 hESC): essential for this d4+ phase |
| O=C1O[C@H]([C@@H](O)CO)C(O)=C1O [L-ascorbic acid] | either did not further enhance differentiation or had negative effects on differentiation | Neither transferrin, L-ascorbic acid, lipids or NEAA enhanced this phase of differentiation | – |
| NC(=O)CC[C@H](N)C(=O)O [L-glutamine] | either did not further enhance differentiation or had negative effects on differentiation | did not enhance cardiac differentiation | – |
| C[C@@H](N)[C@H]1CC[C@H](C(=O)Nc2ccncc2)CC1 [Y-27632, reference compound] | further improved reproducibility and cardiac differentiation | – | – |
| CC(C)NCC(O)c1ccc(O)c(O)c1 (stereo not drawn) [isoproterenol] | – | – | effect on action potential [1]: shortening of the action potential; action potential duration [1]: 262 ± 107 ms; shortening of the mean APD (H9 hEB): 23 ± 8 ms |
| CC(N/C(=N\C#N)Nc1ccncc1)C(C)(C)C (stereo not drawn) [pinacidil] | – | – | effect on action potential [1]: shortening of the action potential; action potential duration [1]: 257 ± 56 ms |
| FGF2: fibroblast growth factor 2 | – | did not further enhance this phase; also recorded: did not enhance cardiac differentiation | – |
| IGF1: growth factor titrated between 1-100 ng mL-1 | none were found to have the same potency as BMP4 | – | – |
| IGF2: growth factor titrated between 1-100 ng mL-1 | none were found to have the same potency as BMP4 | – | – |
| TGFB | none were found to have the same potency as BMP4 | – | – |
| WNT3A | none were found to have the same potency as BMP4 | – | – |
| insulin: recombinant human insulin (Sigma) | – | completely abrogated cardiac specification; also recorded: completely ablated cardiac differentiation | effect on cardiac differentiation, phase 4 medium (H9 hESC): did not effect this d4+ phase; effect on cardiac differentiation, xeno- and serum-free d2-d4 medium (H9 hESC; supplement in serum-free d2-d4 medium): inhibited cardiac differentiation |
